Inconclusive results and toxic doses are left out. No stated cut-off is given here; in the data, active means T/C of 150% or more; inactive means T/C below 125%.
Tested on: L1210 leukemia ip in BDF1 mice, survival T/C
Assay: NCI In Vivo Anticancer Drug Screen. Data for tumor model L1210 Leukemia (intraperitoneal) in B6D2F1 (BDF1) mice
Details: endpoint: mean survival time, higher = longer survival
In short: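 Tumor was transplanted into mice, which were then dosed with test compound or vehicle alone. Survival was recorded for each group, and the treated figure was expressed relative to the control figure.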

[1] = dose: 100.0 mg/kg/injection, schedule: Q01DX001 (ip), vehicle: Klucel (hydroxypropylcellulose) (HPC)
[2] = dose: 200.0 mg/kg/injection, schedule: Q01DX001 (ip), vehicle: Klucel (hydroxypropylcellulose) (HPC)
[3] = dose: 400.0 mg/kg/injection, schedule: Q01DX001 (ip), vehicle: Klucel (hydroxypropylcellulose) (HPC)
[4] = dose: 10.0 mg/kg/injection, schedule: Q01DX001 (ip), vehicle: saline
[5] = dose: 20.0 mg/kg/injection, schedule: Q01DX001 (ip), vehicle: saline
[6] = dose: 200.0 mg/kg/injection, schedule: Q01DX001 (ip), vehicle: carboxymethylcellulose (CMC)
[7] = dose: 400.0 mg/kg/injection, schedule: Q01DX001 (ip), vehicle: carboxymethylcellulose (CMC)
[8] = dose: 100.0 mg/kg/injection, schedule: Q01DX009 (ip), vehicle: Klucel (hydroxypropylcellulose) (HPC)
[9] = dose: 100.0 mg/kg/injection, schedule: Q04DX002 (ip), vehicle: Klucel (hydroxypropylcellulose) (HPC)
[10] = dose: 200.0 mg/kg/injection, schedule: Q01DX009 (ip), vehicle: Klucel (hydroxypropylcellulose) (HPC)
[11] = dose: 200.0 mg/kg/injection, schedule: Q04DX002 (ip), vehicle: Klucel (hydroxypropylcellulose) (HPC)
[12] = dose: 400.0 mg/kg/injection, schedule: Q01DX009 (ip), vehicle: Klucel (hydroxypropylcellulose) (HPC)
[13] = dose: 400.0 mg/kg/injection, schedule: Q04DX002 (ip), vehicle: Klucel (hydroxypropylcellulose) (HPC)
[14] = dose: 100.0 mg/kg/injection, schedule: Q04DX003 (ip), vehicle: saline with Tween-80
[15] = dose: 400.0 mg/kg/injection, schedule: Q04DX003 (ip), vehicle: saline with Tween-80

Measured: T/C

CC(=O)c1ccccc1-n1c(C)ccc1C
inactive: dose: 100.0 mg/kg/injection, schedule: Q01DX009 (ip), vehicle: saline 95 % of control | dose: 100.0 mg/kg/injection, schedule: Q04DX003 (ip), vehicle: saline + alcohol 100 % of control | dose: 200.0 mg/kg/injection, schedule: Q01DX009 (ip), vehicle: saline 98 % of control | dose: 200.0 mg/kg/injection, schedule: Q04DX003 (ip), vehicle: saline + alcohol 100 % of control | dose: 400.0 mg/kg/injection, schedule: Q01DX009 (ip), vehicle: saline 98 % of control | dose: 400.0 mg/kg/injection, schedule: Q04DX003 (ip), vehicle: saline + alcohol 108 % of control

COc1ccc2c(c1)c1c(C)c3cnccc3c(C)c1n2CCCN
inactive: dose: 0.5 mg/kg/injection, schedule: Q01DX009 (ip), vehicle: saline 96 % of control | dose: 1.0 mg/kg/injection, schedule: Q01DX009 (ip), vehicle: saline 102 % of control | dose: 3.0 mg/kg/injection, schedule: Q01DX009 (ip), vehicle: saline 104 % of control | dose: 3.0 mg/kg/injection, schedule: Q04DX003 (ip), vehicle: saline 104 % of control | dose: 6.0 mg/kg/injection, schedule: Q01DX009 (ip), vehicle: saline 112 % of control | dose: 6.0 mg/kg/injection, schedule: Q04DX003 (ip), vehicle: saline 104 % of control | dose: 12.0 mg/kg/injection, schedule: Q01DX009 (ip), vehicle: saline 106 % of control | dose: 12.0 mg/kg/injection, schedule: Q04DX003 (ip), vehicle: saline 107 % of control

CN(Cc1ccccc1)C(=O)COc1ccc(Cl)c(Cl)c1
inactive: [1] 106 % of control | [2] 96 % of control | [3] 102 % of control

COc1ccccc1N(C(C)=O)C1=C(Cl)C(=O)c2ccccc2C1=O
inactive: [4] 97 % of control | [5] 97 % of control

CCCCCCCCCCCC1=C(O)C(=O)C(CC2=C(O)C(=O)C(CCCCCCCCCCC)=C(O)C2=O)=C(O)C1=O
inactive: [6] 100 % of control | [7] 103 % of control

O=C(c1ccccc1)C(Nc1nc2nc(-c3ccccc3)c(-c3ccccc3)n2[nH]1)c1ccccc1 (centres undefined)
inactive: dose: 100.0 mg/kg/injection, schedule: Q01DX005 (ip), vehicle: Klucel (hydroxypropylcellulose) (HPC) 98 % of control | [8] 93 % of control | [9] 101 % of control | dose: 200.0 mg/kg/injection, schedule: Q01DX005 (ip), vehicle: Klucel (hydroxypropylcellulose) (HPC) 98 % of control | [10] 93 % of control | [11] 93 % of control | dose: 400.0 mg/kg/injection, schedule: Q01DX005 (ip), vehicle: Klucel (hydroxypropylcellulose) (HPC) 98 % of control | [12] 93 % of control | [13] 96 % of control

COC1OC(CI)C(OC(C)=O)C(OC(C)=O)C1OS(C)(=O)=O (centres undefined)
inactive: [9] 97 % of control | [11] 106 % of control | [13] 91 % of control

Clc1cc2c(cc1Cl)OB(c1ccccc1)O2
inactive: dose: 100.0 mg/kg/injection, schedule: Q04DX003 (ip), vehicle: alcohol 113 % of control | dose: 200.0 mg/kg/injection, schedule: Q04DX003 (ip), vehicle: alcohol 106 % of control

O=[N+]([O-])C12CCCCC1([N+](=O)[O-])CCCC2 (centres undefined)
inactive: dose: 100.0 mg/kg/injection, schedule: Q04DX003 (ip), vehicle: saline 103 % of control | dose: 200.0 mg/kg/injection, schedule: Q04DX003 (ip), vehicle: saline 92 % of control | dose: 400.0 mg/kg/injection, schedule: Q04DX003 (ip), vehicle: saline 108 % of control

CC(C)C(C)(O)C#N (centres undefined)
inactive: dose: 5.0 mg/kg/injection, schedule: Q01DX001 (ip), vehicle: saline 92 % of control | [4] 97 % of control | [5] 100 % of control

CNc1ncnc(N(C)C)c1[N+](=O)[O-]
inactive: dose: 50.0 mg/kg/injection, schedule: Q01DX009 (ip), vehicle: Klucel (hydroxypropylcellulose) (HPC) 102 % of control | [8] 98 % of control | [10] 109 % of control

CC(C)(C)C(=O)Oc1ccc(C(C)(C)C)cc1
inactive: [8] 101 % of control | dose: 100.0 mg/kg/injection, schedule: Q04DX003 (ip), vehicle: Klucel (hydroxypropylcellulose) (HPC) 104 % of control | [10] 102 % of control | dose: 200.0 mg/kg/injection, schedule: Q04DX003 (ip), vehicle: Klucel (hydroxypropylcellulose) (HPC) 98 % of control | [12] 98 % of control | dose: 400.0 mg/kg/injection, schedule: Q04DX003 (ip), vehicle: Klucel (hydroxypropylcellulose) (HPC) 92 % of control

O=C(COC1CCCCC1)OC1CCCCC1
inactive: dose: 100.0 mg/kg/injection, schedule: Q01DX009 (ip), vehicle: saline with Tween-80 95 % of control | [14] 98 % of control | dose: 200.0 mg/kg/injection, schedule: Q01DX009 (ip), vehicle: saline with Tween-80 96 % of control | dose: 400.0 mg/kg/injection, schedule: Q01DX009 (ip), vehicle: saline with Tween-80 94 % of control | [15] 86 % of control

CCOC(=O)c1ccc2c(c1)C(=O)c1cc([N+](=O)[O-])ccc1-2
inactive: dose: 100.0 mg/kg/injection, schedule: Q01DX001 (ip), vehicle: carboxymethylcellulose (CMC) 96 % of control | [6] 96 % of control | [7] 96 % of control

COc1cc2c(cc1OC)C1(NCC2)C(=O)c2ccccc2C1=O
inactive: [1] 100 % of control | [2] 106 % of control | [3] 117 % of control

CC(C)(SCCc1ccccn1)C(N)C(=O)O (centres undefined)
inactive: [1] 102 % of control | [2] 107 % of control | [3] 96 % of control

c1ccc([P+](Cc2ccc3c(c2)OCO3)(c2ccccc2)c2ccccc2)cc1
inactive: dose: 12.5 mg/kg/injection, schedule: Q01DX001 (ip), vehicle: saline 98 % of control | dose: 12.5 mg/kg/injection, schedule: Q01DX009 (ip), vehicle: saline 101 % of control | dose: 12.5 mg/kg/injection, schedule: Q04DX003 (ip), vehicle: saline 95 % of control | dose: 25.0 mg/kg/injection, schedule: Q01DX001 (ip), vehicle: saline 95 % of control | dose: 25.0 mg/kg/injection, schedule: Q04DX003 (ip), vehicle: saline 106 % of control | dose: 50.0 mg/kg/injection, schedule: Q01DX001 (ip), vehicle: saline 96 % of control | dose: 50.0 mg/kg/injection, schedule: Q04DX003 (ip), vehicle: saline 88 % of control

CC(/C=C\c1ccc([N+](=O)[O-])cc1)=N\NC(=O)c1ccncc1
inactive: [14] 98 % of control | dose: 200.0 mg/kg/injection, schedule: Q04DX003 (ip), vehicle: saline with Tween-80 98 % of control | [15] 96 % of control

Source: PubChem BioAssay AID248 (DTP/NCI, 2004)
